Laboratory results as given in patent US20140309265A1, “MACROCYCLIC COMPOUNDS FOR INHIBITION OF INHIBITORS OF APOPTOSIS” (Ensemble Therapeutics, priority 2011, published 2014).
pIC50: −log10 of the molar value.

Key:
His-BIR3 (241-356, XIAP) = target: T1, His-BIR3 (241-356, XIAP) (Homo sapiens, UniProt P98170); assay: XIAP-BIR3/SMAC Homogeneous Time Resolved Fluorescence (HTRF) Assay; type: binding; conditions: Table 4
T1 construct: additions of His-BIR3 (241-356, XIAP), fluorescein labeled SMAC peptide

[1] = target: T2, His-BIR2-3 (125-356, C202A/C213G, XIAP) (Homo sapiens, UniProt P98170, C202A/C213G); assay: XIAP-BIR2-3 Dimeric SMAC Peptide Homogeneous Time Resolved Fluorescence (HTRF) Assay; type: binding; conditions: XIAP BIR2-3, HTRF, Table 4
T2 construct: additions of His-BIR2-3 (125-356, C202A/C213G, XIAP), fluorescein labeled dimeric SMAC peptide
T2 sequence (P98170 125-356 C202A/C213G): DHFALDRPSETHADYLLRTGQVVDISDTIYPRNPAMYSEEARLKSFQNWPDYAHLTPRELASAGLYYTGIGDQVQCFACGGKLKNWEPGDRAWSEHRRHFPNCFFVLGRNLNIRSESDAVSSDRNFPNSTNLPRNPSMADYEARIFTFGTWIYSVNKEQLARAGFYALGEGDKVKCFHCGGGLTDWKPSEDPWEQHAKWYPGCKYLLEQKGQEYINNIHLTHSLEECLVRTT

T1 sequence (P98170 241-356): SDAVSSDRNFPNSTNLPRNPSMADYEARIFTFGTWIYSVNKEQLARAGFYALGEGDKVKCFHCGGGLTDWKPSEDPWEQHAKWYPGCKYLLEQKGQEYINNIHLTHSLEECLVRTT

Row | Structure (SMILES) | pIC50 (His-BIR3 (241-356, XIAP)) | pIC50 [1]
1 | CN[C@@H](C)C(=O)N[C@H](C(=O)N1C[C@@H]2C[C@H]1C(=O)N[C@@H](Cc1ccc3ccccc3c1)C(=O)N[C@H](C(=O)O)Cc1ccc(cc1)OCc1cn(nn1)[C@H]1C[C@@H](C(=O)N[C@@H](Cc3ccc4ccccc4c3)C(=O)N[C@H](C(=O)N3CCC(C(=O)O)CC3)Cc3ccc(cc3)OCc3cn2nn3)N(C(=O)[C@@H](NC(=O)[C@H](C)NC)C(C)(C)C)C1)C(C)(C)C [Compound 1027] | 7.00 to 8.00 | 8.00 to 9.00
2 | CN[C@@H](C)C(=O)N[C@H](C(=O)N1C[C@@H]2C[C@H]1C(=O)N[C@@H](Cc1ccc3ccccc3c1)C(=O)N[C@H](C(=O)O)Cc1ccc(cc1)OCc1cn(nn1)[C@H]1C[C@@H](C(=O)N[C@@H](Cc3ccc4ccccc4c3)C(=O)N[C@H](C(=O)N(C)CCC(=O)O)Cc3ccc(cc3)OCc3cn2nn3)N(C(=O)[C@@H](NC(=O)[C@H](C)NC)C(C)(C)C)C1)C(C)(C)C [Compound 1028] | > 8.00 | ≥ 9.00
3 | CN[C@@H](C)C(=O)N[C@H](C(=O)N1C[C@@H]2C[C@H]1C(=O)N[C@@H](Cc1ccc3ccccc3c1)C(=O)N[C@H](C(=O)O)Cc1ccc(cc1)OCc1cn(nn1)[C@H]1C[C@@H](C(=O)N[C@@H](Cc3ccc4ccccc4c3)C(=O)N[C@H](C(=O)NCc3cccc(-c4nnn[nH]4)c3)Cc3ccc(cc3)OCc3cn2nn3)N(C(=O)[C@@H](NC(=O)[C@H](C)NC)C(C)(C)C)C1)C(C)(C)C [Compound 1029] | 7.00 to 8.00 | 8.00 to 9.00
4 | CN[C@@H](C)C(=O)N[C@H](C(=O)N1C[C@@H]2C[C@H]1C(=O)N[C@@H](Cc1ccc3ccccc3c1)C(=O)N[C@H](C(=O)O)Cc1ccc(cc1)OCc1cn(nn1)[C@H]1C[C@@H](C(=O)N[C@@H](Cc3ccc4ccccc4c3)C(=O)N[C@H](C(=O)NCCCC(=O)O)Cc3ccc(cc3)OCc3cn2nn3)N(C(=O)[C@@H](NC(=O)[C@H](C)NC)C(C)(C)C)C1)C(C)(C)C [Compound 1032] | > 8.00 | ≥ 9.00
5 | CN[C@@H](C)C(=O)N[C@H](C(=O)N1C[C@@H]2C[C@H]1C(=O)N[C@@H](Cc1ccc3ccccc3c1)C(=O)N[C@H](C(=O)O)Cc1ccc(cc1)OCc1cn(nn1)[C@H]1C[C@@H](C(=O)N[C@@H](Cc3ccc4ccccc4c3)C(=O)N[C@H](C(=O)N[C@@H](C)C(=O)O)Cc3ccc(cc3)OCc3cn2nn3)N(C(=O)[C@@H](NC(=O)[C@H](C)NC)C(C)(C)C)C1)C(C)(C)C [Compound 1033] | > 8.00 | 8.00 to 9.00
6 | CN[C@@H](C)C(=O)N[C@H](C(=O)N1C[C@@H]2C[C@H]1C(=O)N[C@@H](Cc1ccc3ccccc3c1)C(=O)N[C@H](C(=O)O)Cc1ccc(cc1)OCc1cn(nn1)[C@H]1C[C@@H](C(=O)N[C@@H](Cc3ccc4ccccc4c3)C(=O)N[C@H](C(=O)N[C@@H](CCCCN)C(=O)N[C@@H](CO)C(=O)O)Cc3ccc(cc3)OCc3cn2nn3)N(C(=O)[C@@H](NC(=O)[C@H](C)NC)C(C)(C)C)C1)C(C)(C)C [Compound 1034] | 7.00 to 8.00 | < 8.00
7 | CN[C@@H](C)C(=O)N[C@H](C(=O)N1C[C@@H]2C[C@H]1C(=O)N[C@@H](Cc1ccc3ccccc3c1)C(=O)N[C@H](C(=O)O)Cc1ccc(cc1)OCc1cn(nn1)[C@H]1C[C@@H](C(=O)N[C@@H](Cc3ccc4ccccc4c3)C(=O)N[C@H](C(=O)NS(=O)(=O)c3ccccn3)Cc3ccc(cc3)OCc3cn2nn3)N(C(=O)[C@@H](NC(=O)[C@H](C)NC)C(C)(C)C)C1)C(C)(C)C [Compound 1035] | > 8.00 | ≥ 9.00
8 | CN[C@@H](C)C(=O)N[C@H](C(=O)N1C[C@@H]2C[C@H]1C(=O)N[C@@H](Cc1ccc3ccccc3c1)C(=O)N[C@H](C(=O)O)Cc1ccc(cc1)OCc1cn(nn1)[C@H]1C[C@@H](C(=O)N[C@@H](Cc3ccc4ccccc4c3)C(=O)N[C@H](C(=O)NS(=O)(=O)c3ccc(OC(F)(F)F)cc3)Cc3ccc(cc3)OCc3cn2nn3)N(C(=O)[C@@H](NC(=O)[C@H](C)NC)C(C)(C)C)C1)C(C)(C)C [Compound 1036] | 7.00 to 8.00 | 8.00 to 9.00
9 | CN[C@@H](C)C(=O)N[C@H](C(=O)N1C[C@@H]2C[C@H]1C(=O)N[C@@H](Cc1ccc3ccccc3c1)C(=O)N[C@H](C(=O)O)Cc1ccc(cc1)OCc1cn(nn1)[C@H]1C[C@@H](C(=O)N[C@@H](Cc3ccc4ccccc4c3)C(=O)N[C@H](C(=O)NS(=O)(=O)CC3CC3)Cc3ccc(cc3)OCc3cn2nn3)N(C(=O)[C@@H](NC(=O)[C@H](C)NC)C(C)(C)C)C1)C(C)(C)C [Compound 1037] | 7.00 to 8.00 | 8.00 to 9.00
10 | CN[C@@H](C)C(=O)N[C@H](C(=O)N1C[C@@H]2C[C@H]1C(=O)N[C@@H](Cc1ccc3ccccc3c1)C(=O)N[C@H](C(=O)O)Cc1ccc(cc1)OCc1cn(nn1)[C@H]1C[C@@H](C(=O)N[C@@H](Cc3ccc4ccccc4c3)C(=O)N[C@H](C(=O)N[C@@H](CC(=O)O)C(=O)N[C@H](CCSC)C(=O)O)Cc3ccc(cc3)OCc3cn2nn3)N(C(=O)[C@@H](NC(=O)[C@H](C)NC)C(C)(C)C)C1)C(C)(C)C [Compound 1038] | 7.00 to 8.00 | < 8.00
11 | CN[C@@H](C)C(=O)N[C@H](C(=O)N1C[C@@H]2C[C@H]1C(=O)N[C@@H](Cc1ccc3ccccc3c1)C(=O)N[C@H](C(=O)O)Cc1ccc(cc1)OCc1cn(nn1)[C@H]1C[C@@H](C(=O)N[C@@H](Cc3ccc4ccccc4c3)C(=O)N[C@H](C(=O)NS(=O)(=O)c3ccc4ccccc4c3)Cc3ccc(cc3)OCc3cn2nn3)N(C(=O)[C@@H](NC(=O)[C@H](C)NC)C(C)(C)C)C1)C(C)(C)C [Compound 1039] | 7.00 to 8.00 | 8.00 to 9.00
12 | CN[C@@H](C)C(=O)N[C@H](C(=O)N1C[C@@H]2C[C@H]1C(=O)N[C@@H](Cc1ccc3ccccc3c1)C(=O)N[C@H](C(=O)O)Cc1ccc(cc1)OCc1cn(nn1)[C@H]1C[C@@H](C(=O)N[C@@H](Cc3ccc4ccccc4c3)C(=O)N[C@H](C(=O)NCc3cc(F)c(OC)c(F)c3)Cc3ccc(cc3)OCc3cn2nn3)N(C(=O)[C@@H](NC(=O)[C@H](C)NC)C(C)(C)C)C1)C(C)(C)C [Compound 1040] | < 7.00 | < 8.00
13 | CN[C@@H](C)C(=O)N[C@H](C(=O)N1C[C@@H]2C[C@H]1C(=O)N[C@@H](Cc1ccc3ccccc3c1)C(=O)N[C@H](C(=O)O)Cc1ccc(cc1)OCc1cn(nn1)[C@H]1C[C@@H](C(=O)N[C@@H](Cc3ccc4ccccc4c3)C(=O)N[C@H](C(=O)NCc3cc(F)c(O)c(F)c3)Cc3ccc(cc3)OCc3cn2nn3)N(C(=O)[C@@H](NC(=O)[C@H](C)NC)C(C)(C)C)C1)C(C)(C)C [Compound 1041] | 7.00 to 8.00 | 8.00 to 9.00
14 | CN[C@@H](C)C(=O)N[C@H](C(=O)N1C[C@@H]2C[C@H]1C(=O)N[C@@H](Cc1ccc3ccccc3c1)C(=O)N[C@H](C(=O)O)Cc1ccc(cc1)OCc1cn(nn1)[C@H]1C[C@@H](C(=O)N[C@@H](Cc3ccc4ccccc4c3)C(=O)N[C@H](C(=O)NC(CO)CO)Cc3ccc(cc3)OCc3cn2nn3)N(C(=O)[C@@H](NC(=O)[C@H](C)NC)C(C)(C)C)C1)C(C)(C)C [Compound 1042] | 7.00 to 8.00 | 8.00 to 9.00
15 | CN[C@@H](C)C(=O)N[C@H](C(=O)N1C[C@@H]2C[C@H]1C(=O)N[C@@H](Cc1ccc3ccccc3c1)C(=O)N[C@H](C(=O)O)Cc1ccc(cc1)OCc1cn(nn1)[C@H]1C[C@@H](C(=O)N[C@@H](Cc3ccc4ccccc4c3)C(=O)N[C@H](c3n[nH]oc3=O)Cc3ccc(cc3)OCc3cn2nn3)N(C(=O)[C@@H](NC(=O)[C@H](C)NC)C(C)(C)C)C1)C(C)(C)C [Compound 1043] | 7.00 to 8.00 | 8.00 to 9.00
16 | CN[C@@H](C)C(=O)N[C@H](C(=O)N1C[C@@H]2C[C@H]1C(=O)N[C@@H](Cc1ccc3ccccc3c1)C(=O)N[C@H](C(=O)O)Cc1ccc(cc1)OCc1cn(nn1)[C@H]1C[C@@H](C(=O)N[C@@H](Cc3ccc4ccccc4c3)C(=O)N[C@H](C(=O)NCC[C@@H](O)C[C@@H](O)CC(=O)O)Cc3ccc(cc3)OCc3cn2nn3)N(C(=O)[C@@H](NC(=O)[C@H](C)NC)C(C)(C)C)C1)C(C)(C)C [Compound 1044] | > 8.00 | 8.00 to 9.00
17 | CN[C@@H](C)C(=O)N[C@H](C(=O)N1C[C@@H]2C[C@H]1C(=O)N[C@@H](Cc1ccc3ccccc3c1)C(=O)N[C@H](C(=O)O)Cc1ccc(cc1)OCc1cn(nn1)[C@H]1C[C@@H](C(=O)N[C@@H](Cc3ccc4ccccc4c3)C(=O)N[C@H](C(=O)NS(=O)(=O)CCCC(=O)O)Cc3ccc(cc3)OCc3cn2nn3)N(C(=O)[C@@H](NC(=O)[C@H](C)NC)C(C)(C)C)C1)C(C)(C)C [Compound 1045] | > 8.00 | ≥ 9.00
18 | CN[C@@H](C)C(=O)N[C@H](C(=O)N1C[C@@H]2C[C@H]1C(=O)N[C@@H](Cc1ccc3ccccc3c1)C(=O)N[C@H](C(=O)O)Cc1ccc(cc1)OCc1cn(nn1)[C@H]1C[C@@H](C(=O)N[C@@H](Cc3ccc4ccccc4c3)C(=O)N[C@H](C(=O)NS(=O)(=O)c3ccncc3)Cc3ccc(cc3)OCc3cn2nn3)N(C(=O)[C@@H](NC(=O)[C@H](C)NC)C(C)(C)C)C1)C(C)(C)C [Compound 1046] | > 8.00 | ≥ 9.00
19 | CN[C@@H](C)C(=O)NC(C(=O)N1C[C@@H]2C[C@H]1C(=O)N[C@@H](Cc1ccc3ccccc3c1)C(=O)N[C@H](c1nc(=O)o[nH]1)Cc1ccc(cc1)OCc1cn(nn1)[C@H]1C[C@@H](C(=O)N[C@@H](Cc3ccc4ccccc4c3)C(=O)N[C@H](C(=O)O)Cc3ccc(cc3)OCc3cn2nn3)N(C(=O)[C@@H](NC(=O)[C@H](C)NC)C(C)(C)C)C1)C(C)(C)C (some centres unmarked) [Compound 1047] | > 8.00 | ≥ 9.00
